According to US20040106545A1, “Compounds and methods for modulating cell adhesion” (priority 1996, published 2004):
“Also recorded” adds a separate entry of the source. Positions of bridges follow the written chain, without caps; N, C: chain ends. Residues, ends and D or L forms follow the SMILES beside them.

Key:
[1] = test system: Madin Darby canine kidney (MDCK) cells; type: cell-based; details: for EC50, decrease of electrical resistance across MDCK cell monolayer: 18 hours
Summary of the method: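 MDCK monolayers, grown in DMEM with 5% FCS from 300,000 cells per insert, exposed to modulating agent in medium (e.g., 0.5 mg/ml final for 24 hours). Transepithelial electrical resistance measured as an index of tight junction formation.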

[2] = test system: Melanoma ME115 cells; assay: Disruption of melanoma cell adhesion, pan-cadherin staining; type: cell-based, human; details: 500 μg/mL, 48 hours
Procedure: (§1) Melanoma ME115 cells (kindly provided by Meenhard Herlyn, Wistar Institute, Philadelphia, Pa.) were plated on glass coverslips and cultured for 24 hours in 50% keratinocyte growth medium (Clonetics, San Diego, Calif.) and 50% L15. Fresh medium containing the cyclic peptides (final concentration 500 μg/mL media) N—Ac-CHAVC-NH2 (SEQ ID NO:10) or N—Ac-CHGVC-NH2 (SEQ ID NO:11) was then added. Following 24 hours of culture in the presence of the peptides, the medium was removed and fresh medium containing the peptides was added. The cells were fixed 24 hours later with cold methanol and stored in phosphate buffered saline (PBS).
Coverslips were blocked for 1 hour in 3% ovalbumin/PBS and incubated for a further 1 hour in the presence of rabbit pan-cadherin antibody (Sigma Chemical Co., St. Louis, Mo.) diluted 1:500. Primary and secondary antibodies were diluted in PBS containing 6% normal goat serum. Following incubation in the primary antibody, coverslips were washed 3 times for 5 minutes each in PBS and incubated for 1 hour in goat anti-rabbit immunoglobulin G conjugated to fluorescein (Kiekegard and Perry, South San Francisco, Calif.) diluted 1:100. Following a further wash in PBS (3×5 minutes) coverslips were mounted in Vectashield (Vector Labs, Burlingame, Calif.) and viewed with a Zeiss infinity corrected microscope.

[3] = test system: A1N4 human breast epithelial cells; assay: Disruption of breast epithelial cell adhesion, E-cadherin staining; type: cell-based; details: 500 μg/mL, 48 hours
Procedure: as §1, with “A1N4 human breast epithelial” for “Melanoma ME115”, “Martha Stampfer, Lawrence Berkeley Laboratory, Berkeley, Calif.)” for “Meenhard Herlyn, Wistar Institute, Philadelphia, Pa.)”, “cultured in F12/DME containing 0.5% FCS and 10 ng/mL EGF” for “cultured”, “hours.” for “hours in 50% keratinocyte growth medium (Clonetics, San Diego, Calif.) and 50% L15.”
Coverslips were blocked for 1 hour in 3% ovalbumin/PBS and incubated for a further 1 hour in the presence of 1 μg/mL mouse anti-E-cadherin antibody (Zymed, Gaithersburg, Md.). Primary and secondary antibodies were diluted in PBS containing 6% normal goat serum. Following incubation in the primary antibody, coverslips were washed 3 times for 5 minutes each in PBS and incubated for 1 hour with goat anti-mouse conjugated to fluorescein (Kiekegard and Perry, South San Francisco, Calif.) diluted 1:100. Following a further wash in PBS (3×5 minutes) coverslips were mounted in Vectashield (Vector Labs, Burlingame, Calif.) and viewed with a Zeiss infinity corrected microscope.

[4] = Cytotoxicity, MTT assay, HMVEC; type: cell-based; details: human, HMVEC (human microvascular endothelial cells), read-out: HMVEC Cytotox (IC50)
Procedure: (§2) N—Ac-CHAVC-NH2 (SEQ ID NO:10) and the control peptide N—Ac-CHGVC-NH2 (SEQ ID NO:11) were evaluated for possible cytotoxic effects on human microvascular endothelial (HMVEC; Clonetics), human umbilical vein endothelial (HUVEC; ATCC #CRL-1730), IAFp2 (human fibroblast cell line; Institute Armand-Frapier, Montreal, Quebec), WI-38 (human fibroblast cell line; ATCC #CCL-75), MDA-MB231 (human breast cancer cell line; ATCC #HTB-26), and PC-3 (human prostate cancer cell line; ATCC #CRL-1435) cells utilizing the MTT assay (Plumb et al., Cancer Res. 49:4435-4440, 1989). Neither of the peptides was cytotoxic at concentrations up to and including 100 μM. Similarly, neither of the peptides was capable of inhibiting the proliferation of the above cell lines at concentrations up to 100 μM, as judged by ^3H-thymidine incorporation assays.

[5] = Cytotoxicity, MTT assay, WI-38; type: cell-based; details: human, read-out: WI-38 Cytotox (IC50)
Procedure: as §2

[6] = test system: SKOV3 human ovarian cancer cells; assay: Induction of apoptosis in SKOV3 cancer cells, in situ cell death detection; type: cell-based; details: 0.5 or 0.25 mg/mL, 48 hours
Procedure: Direct assays of induction of apoptosis may be performed using any standard technique. For example, cadherin-expressing cells (e.g., SKOV3 human ovarian cancer cells) may be plated onto poly-L-lysine coated glass slides and cultured with 500 μg/mL of modulating agent for 24-48 hours. Cells may then be fixed and assayed for cell death using any of a variety of well known methods. For example, an in situ cell death detection kit may be purchased from Boehringer Mannheim (Laval, Quebec) and used according to the manufacturer's instructions.
SKOV3 human ovarian cancer cells cultured in the presence of either N—Ac-CHAVC-NH2 (SEQ ID NO:10) or a control peptide (N—Ac-CHGVC-NH2; SEQ ID NO:11) in MEM with 10% FBS were plated onto poly-L-lysine coated glass slides. The cells were cultured for 24 or 48 hours and fixed with 4% paraformaldehyde for 30 minutes at room temperature. The slides were then washed three times with PBS and assessed for cell death. Cells were treated with 0.5 or 0.25 mg/mL of N—Ac-CHAVC-NH2 (SEQ ID NO:10) or the control N—Ac-CHGVC-NH2 (SEQ ID NO:11), as indicated. Cell death was measured as described by Gavrieli et al, J. Cell. Biol. 119:493-501, 1992 and using the In situ cell death detection kit (Boehringer Mannheim; Laval, Quebec).

SMILES | EC50, decrease of electrical resistance across MDCK cell monolayer [1] | effect on electrical resistance across MDCK cells (in words) [1] | cadherin staining of ME115 cells [2] | melanoma cell adhesion [2] | E-cadherin staining and monolayer of A1N4 cells [3] | IC50 [4] | IC50 ([5]; WI-38 fibroblast cell line) | cell death of SKOV3 cells [6] | IC50 ([5]; WI-38 cells (human fibroblast cell line))
CC[C@H](C)[C@@H]1NC(=O)[C@H](CC(=O)O)NC(=O)[C@H](C(C)C)NC(=O)[C@H](C)NC(=O)[C@H](Cc2c[nH]cn2)NC(=O)[C@H](C)NC(=O)[C@@H](NC(C)=O)CSSC[C@@H](C(N)=O)NC1=O (Ac-CAHAVDIC-NH2; disulfide 1-8) | INACTIVE |  |  |  |  |  |  |  | 
CC(=O)N[C@H]1CSSC[C@@H](C(N)=O)NC(=O)[C@H](CC(=O)O)NC(=O)[C@H](C(C)C)NC(=O)[C@H](C)NC(=O)[C@H](Cc2c[nH]cn2)NC(=O)[C@H](C)NC1=O [N—Ac—CAHAVDC—NH2, N-Ac-Cys-Ala-His-Ala-Val-Asp-Cys-NH2] (Ac-CAHAVDC-NH2; disulfide 1-7) | INACTIVE | complete abrogation of E-cadherin specific activity |  |  |  |  |  |  | 
CC(=O)N[C@H]1CSSC[C@@H](C(N)=O)NC(=O)[C@H](C(C)C)NC(=O)[C@H](C)NC(=O)[C@H](Cc2c[nH]cn2)NC1=O [N—Ac—CHAVC—NH2, N-Ac-Cys-His-Ala-Val-Cys-NH2] |  |  | cadherin is localized in intracellular vesicles; also recorded: absence of cell membrane staining and the appearance of bright intracellular vesicular staining | disrupts melanoma cell adhesion | distribution of E-cadherin is non-contiguous; also recorded: reduced E-cadherin staining with a stitched appearance | > 100 µM | > 100 µM | fluorescent green nuclei in FIGS. 35C and 35D indicate cell death; also recorded: can cause human ovarian cancer cell death | 
CC(=O)N[C@H]1CSSC[C@@H](C(N)=O)NC(=O)[C@H](C(C)C)NC(=O)CNC(=O)[C@H](Cc2c[nH]cn2)NC1=O [N—Ac—CHGVC—NH2, reference compound] |  |  | displayed cadherin staining all over the cell membrane |  | displayed E-cadherin staining concentrated at points of cell-cell contact and formed a tightly adherent monolayer | > 100 µM |  | did not die | > 100 µM
